Results on 3 compounds are retold here after patent US10744127B2, “MDR-reversing 8-hydroxy-quinoline derivatives” (MAGYAR TUDOMÁNYOS AKADÉMIA TERMÉSZETTUDOMÁNYI KUTATÓKÖZPONT, priority 2016, dated 2020).

The test system of one data set is MES-SA/Dx5 cell line. Description: Cytotoxicity, PrestoBlue cell viability assay, MES-SA/Dx5. The class given is cell-based. The settings on record: Homo sapiens. On the procedure: (§1) The human uterine sarcoma cell line MES-SA and its doxorubicin resistant counterpart MES-SA/Dx5 were obtained from ATCC (MES-SA: No. CRL-1976™, MES-SA-Dx5: No. CRL-1977™). MES-SA/Dx5 cells express high levels of P-gp, and therefore are multidrug resistant (MDR). Cells were cultured in DMEM supplemented with 10% FBS, 5 mmol/L glutamine and 50 unit/mL penicillin and streptomycin (Life Technologies).
(§2) Cell survival was measured by the PrestoBlue® Cell Viability Reagent (Life Technologies, USA). Cells were seeded in 100 μl medium at a density of 5000 cells/well in 96-well plates; the serially diluted drug was added the following day. Cells were then incubated for 72 hours at 37° C. in 5% CO2; the drug containing medium was removed, and the PrestoBlue® reagent was added according to the manufacturer's instructions. Fluorescence of the cells was measured by a Perkin Elmer EnSpire multimode plate reader or Perkin Elmer Victor X3 microplate reader. Data were background corrected and normalized to untreated cells. Curves were fitted with the help of Prism software using the sigmoidal dose-response model. Curve fit statistics were used to determine IC50 values. Differences between the IC50 values of the respective cell lines were analyzed by two-sided […] unpaired Student's t test and results were considered statistically significant at a P value of <0.05 (*) or 0.01 (**).

The next data set deals with MES-SA cell line. Nature of the data set: Cytotoxicity, PrestoBlue cell viability assay, parental MES-SA. The class given is cell-based. The settings on record: Homo sapiens; parental MES-SA cell line (Table 2a). On the procedure:
as §1, §2

Data set [1] relates to MES-SA and multidrug-resistant MES-SA/Dx5 cell line. Nature of the data set: Selective toxicity (ratio of IC50 in MES-SA to IC50 in MES-SA/Dx5) and activity index. The class given is cell-based, human.
Excerpt: Compounds having P-gp potentiated MDR-selective activity can be characterized by their inhibitory concentration (IC) with regard to a specific cancer cell line. Usually the IC value is given at a certain percentage ratio of non-inhibited molecules or surviving cells. For example an IC20 value of a compound on a cell line means that at this inhibitory concentration of the compound 80% of the cells are killed whereas 20% of the cells are still viable. A further characteristic of MDR-selective drugs is the selectivity ratio (SR), which is the ratio of the IC value measured in a non-multidrug resistant cell line to (i.e. divided by) the IC value measured in the corresponding transformed, multidrug-resistant cell line. The inverse value, the resistance ratio (RR) is calculated as the ratio of a compound's IC value against a multidrug resistant cell line divided by the parallel IC value of the same compound against a control non-multidrug resistant cell line. The Activity Index (AI) is calculated here as the ratio of the compound's selectivity ratio (SR) and the compound's IC50 value against the resistant cell. The AI reflects the level of simultaneous toxicity and selectivity towards multidrug-resistant cancer cells.
as §1, §2
Selectivity towards multidrug-resistant cells is expressed as the ratio of the IC50 value measured in the parental MES-SA and multidrug-resistant MES-SA/Dx5 cell line (Selectivity Ratio, SR).
A novel characteristic of the compounds presented in this invention is that they exert their selective cytotoxicity at low IC50 values. Simultaneous toxicity and selectivity towards multidrug-resistant cancer cells is reflected by the Activity Index (AI) of the compounds, which is the ratio of the selectivity ratio (SR) and the IC50 value on the resistant cell line.

The subject of data set [2] is MDCK II and MDCK II B1 cell lines. Description: Selective toxicity towards MDCK II and MDCK II B1 cell lines. Particulars: MDCK II versus MDCK II B1. It counts as cell-based, canine. On the procedure: as §2
(§3) Data on selective toxicity (expressed as Selectivity Ratio, SR) in two MDR models engineered by retroviral transfection of P-glycoprotein (A431/A431-B1 and MDCK II/MDCK II B1 cell lines) are presented in Table 3 and Table 4.
(§4) A431 is a human epidermoid carcinoma cell line. Its derivative, the A431-B1 cell line expresses P-gp due to retroviral transfection of the mdr1 gene Türk, D. et al (Türk, D. et al., 2009). MDCK II is a canine kidney cell line. MDCK II B1 was created by inserting the mdr1 gene with transposons [Pape V F S et al. 2015] Both cell express P-gp stably, and show a stable MDR phenotype. Culture conditions were identical as in the case of MES-SA cells.

For data set [3], the system named is MES-SA and MES-SA/Dx5 cells. Description: Selective toxicity in the presence of the P-gp inhibitor tariquidar. The class given is cell-based, human. Particulars: for SR (TQ): selectivity ratio in the presence of tariquidar (1 μM); for Selective toxicity in the presence of P-gp inhibitors: tariquidar. On the procedure: In the presence of tariquidar (an inhibitor of P-gp function), the toxicity of the compounds selectively diminishes in multidrug-resistant MES-SA/Dx5 cells, while the toxicity is unchanged against parental MESSA cells, which is reflected by a decrease in the selectivity ratio (SR (TQ)).
To investigate the contribution of P-glycoprotein to the cytotoxic effect of a compound, cell survival was measured in the presence of the P-glycoprotein inhibitor tariquidar (1 μM). Tariquidar (CAS 206873-63-4) can be obtained e.g. from Selleck, Houston, USA.

For data set [4], the system named is P-gp-expressing MES-SA/Dx5 cells. Nature of the data set: P-gp switch assay (Calcein AM). It counts as cell-based, human. Particulars: for Fraction of P-gp-negative cells (P3) in the population / Fraction of P-gp-positive cells (P4) in the population: MES-SA/Dx5, single dose at IC20 (killing 80% of the cells), surviving population at 80% confluence, Calcein AM; for Loss of P-gp expression in MES-SA/Dx5 cells: single treatment (FIG. 1, Table 6). On the procedure: One million P-gp-expressing MES-SA/Dx5 cells were plated in a T25 cell culture flask. After 24 hours the compound of interest was added directly to the cells at a concentration corresponding to the IC20 value (killing 80% of the cells). After 5 days the culture media was removed, the cells were washed with PBS and the culture medium was exchanged. Cells were monitored daily and the recovery was recorded. The medium was changed every 5 days until the confluence of the cells reached 80%. At 80% confluence the cells were removed by gentle trypsinization, counted by an automated cell counter and stained with Calcein AM, a cellular dye able to detect the function of P-gp (Homolya 1993). P-gp-positivity was evaluated based on the ability of P-gp-expressing cells to extrude Calcein AM.

Another data set deals with MES-SA/Dx5 cells. Description: Sensitivity of MES-SA/Dx5 cells to doxorubicin after a single treatment. It counts as cell-based, human. The settings on record: after treatment with a single dose (FIG. 3). The text has this:
The above treatment with compounds of the general Formula I results in a new, stable phenotype, with the complete resensitization of cells to conventional chemotherapy consisting of P-glycoprotein substrates such as doxorubicin (FIG. 3).
Curves show the sensitivity of MES-SA/Dx5 cells (P-gp overexpressing cell line established from MES-SA) to doxorubicin before and after treatment with a single dose of a state of the art compound (NSC693872) and two compounds relating to this invention (Example compounds No. 9 and No. 17). The sensitivity of MES-SA cells is shown as a reference (P-gp-negative parental cell line). […] (Values indicate the IC50 values (μM) derived from the cytotoxicity curves).

The subject of data set [5] is primary cells from doxorubicin resistant brca1-/-/p53-/- spontaneous mouse mammary carcinoma. Nature of the data set: Calcein assay of functional P-gp in primary tumor cells from doxorubicin resistant mammary carcinoma. It counts as cell-based. Particulars: single treatment, calcein assay (FIG. 4D). The text has this: Tumor pieces derived from Brca1−/−;p53−/− FVB mouse mammary tumors were transplanted orthotopically into the mammary fat pad of wild type FVB mice.
As described by Rottenberg et al. (Pajic et al. 2009), treatment with several cycles of the maximum tolerable dose of doxorubicin invariably lead to drug resistance mediated by the moderate upregulation of Mdr1a and/or Mdr1b (FIG. 4A). Primary cultures from resistant tumors were established. In just 10 passages the culture was depleted of stromal components (FIG. 4B).
Functional expression of P-gp in the primary cells was evaluated by the calcein assay.

Data set [6] has as its system A431 and A431-B1 cell lines. Nature of the data set: Selective toxicity in A431 and A431-B1 cell lines. It counts as cell-based, human. Particulars: A431 versus P-gp-transfected A431-B1. On the procedure:
as §2, §3, §4

Data set [7] deals with ABCB1-overexpressing and parental HEK293 cells. Particulars: cited from earlier work.
For data set [8] the following is noted: WO2010138686 and Türk et al. 2009; cited from earlier work.
Where [9] appears, read: MES-SA/Dx5 (Table 2b), read-out: IC50 (μM) Dx5.
Where [10] appears, read: Mes-sa/Dx5 cell line, PrestoBlue assay, 72 hours (Table 1), read-out: IC50.
[11] abbreviates: multidrug-resistant MES-SA/Dx5 cell line (Table 2a), read-out: IC50 (nM) in MES-SA/Dx5 cell line.
[12] abbreviates: MES-SA / MES-SA/Dx5, without tariquidar (Table 5).

Each structure is given as a SMILES string. Where two headings read alike, the source gives them in different places.

In general, melting point refers to the temperature of the solid-liquid transition. In turn, `COc1ccc(CNCc2cc(Br)c3cccnc3c2O)c(OC)c1` [Example 9, 5-Bromo-7-(((2,4-dimethoxybenzyl)amino)methyl)quinolin-8-ol] came in with a melting point of 146 to 148 °C. Also, in the data set on MES-SA/Dx5 cell line (setting [9]), the IC50 stood at 0.12 µM. The IC50 with MES-SA/Dx5 cell line (setting [10]) turned out to be 0.118 µM. The IC50 in the data set with MES-SA/Dx5 cell line (setting [11]) came to 0.118 µM. For the same compound, the IC50 with MES-SA cell line amounted to 2260 nM. Moreover, the SR in [1] (MES-SA / MES-SA/Dx5 (Table 2b)) was 20.4. Moreover, the SR in data set [1] (setting [12]) is given as 20.4. Moreover, the “Selectivity Ratio (SR) (MDCK II/MDCK II B1)” value in data set [2] was determined as 16.8. The “SR (TQ)” value in data set [3] was 1.8. For the same compound, in data set [4], the “Fraction of P-gp-negative cells (P3) in the population” value (“Fraction of P-gp-negative cells (P3)” below) is 99.0% and the “Fraction of P-gp-positive cells (P4) in the population” value (“Fraction of P-gp-positive cells (P4)” below) was 1.0%. In addition, in the data set on MES-SA/Dx5 cells, the “Resensitization of MES-SA/Dx5 cells to doxorubicin” value is “sufficient to resensitize MES-SA/Dx5 cells to doxorubicin”. Further, the “P-gp efflux capacity of primary tumor cells” value in data set [5] is “efflux capacity of the cells could be eradicated by a single treatment”.

With `Cl.Oc1c(CN2CCCC2)ccc2cccnc12` [NSC693871, 7-(pyrrolidin-1-ylmethyl)quinolin-8-ol hydrochloride, reference compound], the IC50 worked out at 1.47 µM with MES-SA/Dx5 cell line (setting [9]), 1.47 µM in the data set with MES-SA/Dx5 cell line (setting [10]), 1.47 µM in the data set on MES-SA/Dx5 cell line (setting [11]) and 6250 nM in the data set with MES-SA cell line. Besides, the SR in [1] (MES-SA / MES-SA/Dx5 (Table 2b)) and in [1] (setting [12]) was 4.2 in each case. Besides, the “Selectivity Ratio (SR) (A431/A431-B1)” value in data set [6] was 3.8. For the same compound, the “Selectivity Ratio (SR) (MDCK II/MDCK II B1)” value in [2] is 4.4. Further, in [3], the “SR (TQ)” value is listed as 1.4. The “Selective toxicity in the presence of P-gp inhibitors” value in data set [3] is given as “retain a partial selective toxicity”. Moreover, the “Fraction of P-gp-negative cells (P3)” value in [4] is recorded as 9.1%. Besides, the “Fraction of P-gp-positive cells (P4)” value in data set [4] is reported as 90.9%. The “Loss of P-gp expression in MES-SA/Dx5 cells” value in data set [4] is “insignificant loss”. In addition, the selectivity in [7] is roughly 10; in data set [8] it was “about 8.48”.

In the case of `CCN(CC)Cc1ccc2cccnc2c1O` [NSC693872, 7-(N,N-diethylaminomethyl)quinolin-8-ol, reference compound], the IC50 in the data set on MES-SA/Dx5 cell line (setting [9]) is 1.58 µM; in the data set with MES-SA/Dx5 cell line (setting [10]) it was 1.58 µM; with MES-SA/Dx5 cell line (setting [11]), 1.58 µM; in the data set with MES-SA cell line, 7810 nM. In addition, the SR in [1] (MES-SA / MES-SA/Dx5 (Table 2b)) and in [1] (setting [12]) was 4.9 throughout. Besides, the “Selectivity Ratio (SR) (A431/A431-B1)” value in data set [6] is 1.9. The “Selectivity Ratio (SR) (MDCK II/MDCK II B1)” value in data set [2] is recorded as 3.1. For the same compound, the “SR (TQ)” value in [3] came to 2.6. Moreover, the “Selective toxicity in the presence of P-gp inhibitors” value in [3] is “retain a partial selective toxicity”. The “Fraction of P-gp-negative cells (P3)” value in [4] is 7.8%. In addition, in data set [4], the “Fraction of P-gp-positive cells (P4)” value is 92.2%. In addition, the “Loss of P-gp expression in MES-SA/Dx5 cells” value in data set [4] is listed as “insignificant loss”. Also, the “Resensitization of MES-SA/Dx5 cells to doxorubicin” value in the data set with MES-SA/Dx5 cells is recorded as “not sufficient to influence the resistance of the cells to doxorubicin”. For the same compound, the selectivity in [8] is on record as roughly 3.90.
